Active and inactive are the calls of the source.
Assays:
[1] = target: Type-1 angiotensin II receptor (Homo sapiens, UniProt P30556); assay: AT1 receptor antagonists, dose response, selectivity assay for APJ receptor antagonist project, cell-based, uHTS hits (AID 463214); assay type: functional;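 further: antagonist potency against angiotensin II stimulated AT1 response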
Beta-galactosidase = Beta-galactosidase (Escherichia coli, UniProt Q8VNN2); assay: PubChem AID 485352; assay type: functional
[2] = target: T1, DNA repair protein RAD52 homolog (Homo sapiens, UniProt P43351); assay type: functional, biochemical
T1 sequence (P43351 whole entry): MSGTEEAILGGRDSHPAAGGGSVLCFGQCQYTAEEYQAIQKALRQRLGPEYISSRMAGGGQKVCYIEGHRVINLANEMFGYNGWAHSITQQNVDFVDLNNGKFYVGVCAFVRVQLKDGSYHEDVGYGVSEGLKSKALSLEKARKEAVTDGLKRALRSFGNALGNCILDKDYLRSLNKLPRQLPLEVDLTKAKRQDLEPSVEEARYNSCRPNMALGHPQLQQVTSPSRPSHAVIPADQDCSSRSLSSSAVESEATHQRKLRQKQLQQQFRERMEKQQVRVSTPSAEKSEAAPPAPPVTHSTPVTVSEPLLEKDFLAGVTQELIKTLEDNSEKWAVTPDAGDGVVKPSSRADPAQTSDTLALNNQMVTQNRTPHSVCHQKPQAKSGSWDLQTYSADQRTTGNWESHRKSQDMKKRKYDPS

Bcl-2-related protein A1 = target: T2, Bcl-2-related protein A1 (Mus musculus, UniProt Q07440); assay type: functional;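 further: confirmatory dose–response counterscreen on Bfl-1, used to check hits from a UBC13 polyubiquitin inhibitor campaign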
T2 sequence (Q07440 whole entry): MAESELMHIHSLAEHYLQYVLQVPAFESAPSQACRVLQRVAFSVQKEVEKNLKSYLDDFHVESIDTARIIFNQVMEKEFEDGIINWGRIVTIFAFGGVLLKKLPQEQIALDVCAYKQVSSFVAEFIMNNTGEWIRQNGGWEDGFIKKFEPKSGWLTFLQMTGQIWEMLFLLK

Melanocortin receptor 4 = Melanocortin receptor 4 (Homo sapiens, UniProt P32245); assay: MC4R antagonist potency on cAMP, dose response, cell-based, TR-FRET, biased antagonists (AID 602298); assay type: functional;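 further: antagonist potency against agonist-stimulated cAMP production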
[3] = target: T3, Ubiquitin-conjugating enzyme E2 N (Homo sapiens, UniProt P61088); assay type: functional;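 further: Dose-response confirmation in a TR-FRET assay detecting UBC13-driven polyubiquitin chain formation, inhibition measured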
T3 sequence (P61088 whole entry): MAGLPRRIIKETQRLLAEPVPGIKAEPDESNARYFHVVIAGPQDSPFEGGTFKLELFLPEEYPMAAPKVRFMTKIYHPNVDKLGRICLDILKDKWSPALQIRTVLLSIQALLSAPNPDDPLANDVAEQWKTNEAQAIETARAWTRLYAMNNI

[4] = nonselective inhibitors of cellular cAMP signaling, dose response, counter-screen for MC4R biased antagonist project, cell-based, TR-FRET cAMP detection (AID 602305); assay type: functional;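 further: U2OS cells stimulated with forskolin near its EC80 as the cAMP inducer; potency is for inhibition of forskolin-stimulated cAMP signaling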
Hexokinase HKDC1 = target: T4, Hexokinase HKDC1 (Homo sapiens, UniProt Q2TB90); assay: SAR analysis of small molecule inhibitors of hexokinase domain containing I (HKDC1). [Related pubchem assays (depositor defined):AID493160, AID493190]; assay type: functional
T4 sequence (Q2TB90 whole entry): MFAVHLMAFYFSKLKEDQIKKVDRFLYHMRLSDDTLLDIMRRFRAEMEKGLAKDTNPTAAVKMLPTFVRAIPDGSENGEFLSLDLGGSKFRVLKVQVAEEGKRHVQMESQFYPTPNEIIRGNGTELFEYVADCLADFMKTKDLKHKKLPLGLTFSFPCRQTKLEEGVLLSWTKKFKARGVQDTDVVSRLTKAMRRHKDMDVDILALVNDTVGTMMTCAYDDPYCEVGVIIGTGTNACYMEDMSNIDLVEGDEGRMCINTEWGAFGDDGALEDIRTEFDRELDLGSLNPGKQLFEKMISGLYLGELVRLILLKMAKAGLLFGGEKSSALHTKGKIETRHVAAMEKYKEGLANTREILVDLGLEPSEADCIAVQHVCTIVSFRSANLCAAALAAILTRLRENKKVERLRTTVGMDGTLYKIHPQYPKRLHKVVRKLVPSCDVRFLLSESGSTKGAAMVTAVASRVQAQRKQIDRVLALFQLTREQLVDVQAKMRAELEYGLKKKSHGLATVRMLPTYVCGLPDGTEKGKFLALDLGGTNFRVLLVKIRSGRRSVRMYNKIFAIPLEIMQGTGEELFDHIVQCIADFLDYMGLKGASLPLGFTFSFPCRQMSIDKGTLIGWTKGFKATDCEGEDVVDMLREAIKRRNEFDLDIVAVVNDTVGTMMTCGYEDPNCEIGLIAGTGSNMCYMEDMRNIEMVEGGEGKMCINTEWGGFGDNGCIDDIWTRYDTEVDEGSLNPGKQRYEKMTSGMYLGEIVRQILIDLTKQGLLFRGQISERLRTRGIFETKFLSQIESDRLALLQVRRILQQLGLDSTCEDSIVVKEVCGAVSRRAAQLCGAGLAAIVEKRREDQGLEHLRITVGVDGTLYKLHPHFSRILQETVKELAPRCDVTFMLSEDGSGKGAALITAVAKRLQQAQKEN

Hexokinase-1 = Hexokinase-1 (Homo sapiens, UniProt P19367); assay: SAR analysis of small molecule inhibitors of hexokinase domain containing I (HKDC1) in the hexokinase 1 selectivity assay. [Related pubchem assays (depositor defined):AID493160, AID493190]; assay type: functional
Major prion protein = Major prion protein (Homo sapiens, UniProt P04156); assay type: functional, cell-based
[5] = inhibitors of cytokine-induced nitrite release, dose response, cell-based, Griess absorbance, INS-1E, dry powder, set 3 (AID 488870); assay type: functional; settings: Rattus norvegicus
INS1 [6] = assay: protection from cytokine-driven beta-cell apoptosis, dose response, JC-1 fluorescence, INS-1E, dry powder, set 2 (AID 488867); assay type: functional, cell-based; settings: Rattus norvegicus
INS1 [7] = assay: protection from cytokine-induced mitochondrial depolarization, dose response, cell-based, INS-1E, JC-1 fluorescence ratio, dry powder (AID 488931); assay type: functional; settings: Rattus norvegicus
INS1 [8] = assay: protection of INS-1E cells from cytokine death, dose response, ATP luminescence, dry powder (AID 488844); assay type: functional, cell-based; settings: Rattus norvegicus

For CCC[C@@H](CN1CCC[C@H]1CN1C(N)=NC[C@H]1CC(C)C)N1C[C@@H](Cc2ccccc2)N(CCc2ccc(Cl)c(Cl)c2)C1=N, the IC50 [1] was > 40 µM (not active), the EC50 (Beta-galactosidase) was > 40 µM (inactive) and the AC50 [2] was 14.7 µM (active). The IC50 (Bcl-2-related protein A1) was > 20 µM (inactive), the IC50 (Melanocortin receptor 4) was 7.65 µM (active) and the IC50 [3] was 12.5 µM (active). The IC50 [4] was > 64.6 µM (inactive).

For O=C(CSc1ncnc2ccccc12)Nc1cccc(S(=O)(=O)N2CCOCC2)c1, the IC50 (Hexokinase HKDC1) was > 80 µM (inactive), the IC50 (cells) was > 138 µM (inactive) and the IC50 (Hexokinase-1) was > 80 µM (inactive). The IC50 (Major prion protein) was 9.12 µM (active).

In the case of COc1ccc(S(=O)(=O)N(C)C[C@H]2Oc3c(NC(=O)Nc4cccc5ccccc45)cccc3C(=O)N([C@H](C)CO)C[C@@H]2C)cc1, the AC50 [5] is reported as 63.9 µM (active), the AC50 (INS1 [6]) is reported as 43.4 µM (active) and the AC50 (INS1 [7]) is reported as 33.7 µM (active). The AC50 (INS1 [8]) was 21.9 µM (active).
